In patent publication US20100035943A1, “Oxa-and thiadiazoles and their use as metalloproteinase inhibitors” (VERNALIS (OXFORD) LTD, priority 2002, published 2010) one finds IC50 data, which are given here for 18 compounds.

Assay type in all cases: biochemical
For one experiment, the target named is metalloelastase (MMP12) (Homo sapiens, UniProt P39900). In words: MMP12 enzyme inhibition assay (fluorogenic peptide substrate McaPLGLDpaAR). Particulars: protocol as for MMP9 assay. As for the experimental part:
(§1) Stock solutions were made up as follows: • Assay Buffer: 100 mM Tris-HCl pH 7.6 containing 100 mM NaCl, 10 mM CaCl2, and 0.05% Brij 35 • Substrate: 0.4 mM McaPLGLDpaAR (from Bachem) (0.437 mg/ml) stock solution in 100% DMSO (stored at −20° C.). Dilute to 8 μM in assay buffer. • Enzyme: Recombinant human 92 kDa gelatinase (MMP-9; APMA (4-aminophenyl • mercuric acetate)—activated if necessary) appropriately diluted in assay buffer.
(§2) Test Compounds were prepared initially as 10 mM compound solution in 100% DMSO, diluted to 1 mM in 100% DMSO, then serially diluted 3-fold in 100% DMSO across columns 1-10 of a 96-well microtitre plate Assay concentration range, 100 μM (column 1) to 5.1 nM (column 10)
(§3) The assay was performed in a total volume of 100 μl per well in 96-well microtitre plates. Activated enzyme (20 μl) was added to the wells followed by 20 μl of assay buffer. Appropriate concentrations of test compounds dissolved in 10 μl of DMSO were then added followed by 50 μl of McaPLGLDpaAR (8 μM, prepared by dilution of DMSO stock in assay buffer). For each assay ten concentrations of test compound were examined in duplicate. Control wells lack either enzyme or test compound. The reactions were incubated at 37° C. for 2 hours. The fluorescence at 405 nm was measured immediately with an SLT Fluostar fluorometer (SLT Labinstruments GmbH, Grödig, Austria) using 320 nm excitation, without stopping the reaction.
(§4) The effect of the test compound was determined from the dose response curve generated by the 10 duplicate concentrations of inhibitor. The IC50 (the concentration of compound required to give a 50% decrease in enzyme activity) was obtained by fitting data to the equation, Y=a+((b−a)/(1+(c/X)^d)). (Y=inhibition achieved for a particular dose; X=the dose in nM; a=minimum y or zero % inhibition; b=maximum y or 100% inhibition; c=is the IC50; d=is the slope). The result was rounded to one significant figure.
Compounds were tested for inhibitory activity against metalloelastase (MMP12) in an assay using a coumarin-labelled peptide substrate, (7-methoxycoumarin-4-yl)acetyl-Pro-Leu-Gly-Leu-(3-[2,4-dinitrophenyl]-L-2,3-diaminopropionyl)-Ala-Arg-NH2 (McaPLGLDpaAR) (Knight et al, FEBS Lett. 1992; 263-266). The protocol for this assay was as described for the MMP9 assay above.

The next experiment concerns the target 92 kDa gelatinase (MMP9) (Homo sapiens, UniProt P14780). Briefly: MMP9 enzyme inhibition assay (fluorogenic peptide substrate McaPLGLDpaAR). As to conditions: recombinant human 92 kDa gelatinase, 37° C., 2 hours. As for the experimental part:
Compounds were tested for inhibitory activity against 92 kDa gelatinase (MMP9) in an assay using a coumarin-labelled peptide substrate, (7-methoxycoumarin-4-yl)acetyl-Pro-Leu-Gly-Leu-(3-[2,4-dinitrophenyl]-L-2,3-diaminopropionyl)-Ala-Arg-NH2 (McaPLGLDpaAR) (Knight et al, FEBS Lett. 1992; 263-266).
as §1, §2, §3, §4

The next experiment deals with T1, collagenase (MMP1) (Homo sapiens, UniProt P03956).
T1 sequence (P03956 100-469): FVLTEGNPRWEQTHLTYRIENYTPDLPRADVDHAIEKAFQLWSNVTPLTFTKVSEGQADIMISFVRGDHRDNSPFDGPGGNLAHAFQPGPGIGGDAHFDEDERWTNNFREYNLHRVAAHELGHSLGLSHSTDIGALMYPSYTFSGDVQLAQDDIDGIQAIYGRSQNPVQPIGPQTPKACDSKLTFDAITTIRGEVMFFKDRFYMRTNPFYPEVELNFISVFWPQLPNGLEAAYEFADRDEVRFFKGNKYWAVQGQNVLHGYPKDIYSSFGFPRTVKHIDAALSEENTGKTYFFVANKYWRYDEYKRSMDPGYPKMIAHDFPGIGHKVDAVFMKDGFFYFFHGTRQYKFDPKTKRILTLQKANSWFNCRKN
Briefly: MMP1 enzyme inhibition assay (fluorogenic peptide substrate McaPLGLDpaAR). Particulars: protocol as for MMP9 assay. On the procedure: as §1, §2, §3, §4
• Compounds were tested for inhibitory activity against collagenase (MMP1) in an assay using a coumarin-labelled peptide substrate, (7-methoxycoumarin-4-yl)acetyl-Pro-Leu-Gly-Leu-(3-[2,4-dinitrophenyl]-L-2,3-diaminopropionyl)-Ala-Arg-NH2 (McaPLGLDpaAR) (Knight et al, FEBS Lett. 1992; 263-266). The protocol for this assay was as described for the MMP9 assay above.

Chain of metalloelastase (MMP12) (P39900 106-470): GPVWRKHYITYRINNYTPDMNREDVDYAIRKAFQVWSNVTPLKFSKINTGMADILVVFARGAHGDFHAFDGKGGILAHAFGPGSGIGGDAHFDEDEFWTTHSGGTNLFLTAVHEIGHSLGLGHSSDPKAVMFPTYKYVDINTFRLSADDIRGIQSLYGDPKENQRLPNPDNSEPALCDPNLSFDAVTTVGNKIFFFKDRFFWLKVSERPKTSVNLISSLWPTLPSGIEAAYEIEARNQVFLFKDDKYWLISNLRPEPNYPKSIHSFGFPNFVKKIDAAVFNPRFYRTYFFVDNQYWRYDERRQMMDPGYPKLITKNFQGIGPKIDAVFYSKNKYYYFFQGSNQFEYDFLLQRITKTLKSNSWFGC
Chain of 92 kDa gelatinase (MMP9) (P14780 107-707 limits assumed): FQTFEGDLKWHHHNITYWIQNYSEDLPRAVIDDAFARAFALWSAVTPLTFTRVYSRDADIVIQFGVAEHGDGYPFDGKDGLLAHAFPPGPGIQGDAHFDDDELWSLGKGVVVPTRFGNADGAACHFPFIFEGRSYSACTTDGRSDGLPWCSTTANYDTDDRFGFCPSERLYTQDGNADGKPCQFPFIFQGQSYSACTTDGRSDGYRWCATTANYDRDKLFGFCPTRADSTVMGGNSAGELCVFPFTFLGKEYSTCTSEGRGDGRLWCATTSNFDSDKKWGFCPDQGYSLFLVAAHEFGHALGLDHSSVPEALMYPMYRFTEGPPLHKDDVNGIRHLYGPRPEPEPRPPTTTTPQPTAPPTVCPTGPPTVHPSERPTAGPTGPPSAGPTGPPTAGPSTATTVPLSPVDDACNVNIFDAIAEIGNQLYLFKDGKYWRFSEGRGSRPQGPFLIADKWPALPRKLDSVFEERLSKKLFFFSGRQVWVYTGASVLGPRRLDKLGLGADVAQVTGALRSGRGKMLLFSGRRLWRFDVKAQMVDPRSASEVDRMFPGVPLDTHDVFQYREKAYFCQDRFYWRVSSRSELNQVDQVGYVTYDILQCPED

By IC50 is commonly meant the midpoint of a concentration-inhibition curve. For the compound `CC(C)C[C@@H](C(=O)N[C@H](c1noc(CC(C)(C)C)n1)C(C)(C)C)[C@H](O)C(=O)NO` [Example 14, 2S-Hydroxy-3R-[1S-(5-(2,2-dimethyl-propyl)-[1,2,4]oxadiazol-3-yl)-2,2-dimethyl-propylcarbamoyl]-5-methyl Hexanohydroxamic Acid], the results for the half-maximal inhibitory concentration (IC50) against metalloelastase (MMP12), on 92 kDa gelatinase (MMP9) and on collagenase (MMP1) were < 100 nM, 1000 to 10000 nM and 1000 to 10000 nM, respectively.

Consider `C=CC[C@H](C(=O)NO)[C@@H](CC(C)C)C(=O)N[C@H](c1nc(C)no1)C(C)(C)C` [Example 23, 2S-Allyl-3R-[2,2-dimethyl-I S-(3-methyl-[1,2,4]oxadiazol-5-yl)-propylcarbamoyl]-5-methyl-hexanohydroxamic Acid], for which the IC50 on metalloelastase (MMP12) was < 100 nM; at 92 kDa gelatinase (MMP9) it was < 100 nM; on collagenase (MMP1) it was 100 to 1000 nM.

Take `CC(C)C[C@@H](C(=O)N[C@H](c1nc(-c2ccccc2)no1)C(C)(C)C)[C@H](O)C(=O)NO` [Example 2, 3R-[2,2-Dimethyl-1S-(3-phenyl-[1,2,4]oxadiazol-5-yl)-propylcarbamoyl]-2S-hydroxy-5-methyl-hexanohydroxamic Acid]: the IC50 on metalloelastase (MMP12) was < 100 nM; at 92 kDa gelatinase (MMP9), 100 to 1000 nM; against collagenase (MMP1), 100 to 1000 nM.

Consider `CC(C)C[C@H](CC(=O)NO)C(=O)N[C@H](c1nc(-c2ccccc2)no1)C(C)(C)C` [Example 24, 3R-[2,2-Dimethyl-1S-(3-phenyl-[1,2,4]oxadiazol-5-yl)-propylcarbamoyl]-5-methyl-hexanohydroxamic Acid], for which the half-inhibitory concentration (IC50) is < 100 nM against metalloelastase (MMP12), 1000 to 10000 nM on 92 kDa gelatinase (MMP9) and 1000 to 10000 nM against collagenase (MMP1).

In the case of `CC(C)C[C@@H](C(=O)N[C@H](c1noc(-c2ccco2)n1)C(C)(C)C)[C@H](O)C(=O)O` [Example 30, 3R-[1S-(5-Furan-2-yl-[1,2,4]oxadiazol-3-yl)-2,2-dimethyl-propylcarbamoyl]-2S-hydroxy-5-methyl-hexanoic Acid], the IC50 was 1000 to 10000 nM against metalloelastase (MMP12), > 10000 nM on 92 kDa gelatinase (MMP9) and > 10000 nM at collagenase (MMP1).

Regarding `CC(C)(C)[C@H](NC(=O)[C@H](C/C=C/c1ccccc1)[C@H](O)C(=O)NO)c1nc(-c2ccccc2)no1` [Example 31, N4-[2,2-Dimethyl-1S-(3-phenyl-[1,2,4]oxadiazol-5-yl)-propyl]-2S,N1-dihydroxy-3R-(3-phenyl-allyl)-succinamide], the IC50 on metalloelastase (MMP12) was 100 to 1000 nM; at 92 kDa gelatinase (MMP9), > 10000 nM; against collagenase (MMP1), > 10000 nM.

Consider `Cc1ccc(-c2nc([C@@H](NC(=O)[C@H](CC(C)C)[C@H](O)C(=O)NO)C(C)(C)C)no2)cc1` [Example 15, 2S-Hydroxy-3R-[1S-(5-p-tolyl-[1,2,4]oxadiazol-3-yl)-2,2-dimethyl-propylcarbamoyl]-5-methyl Hexanohydroxamic Acid], for which the IC50 against metalloelastase (MMP12) was < 100 nM; at 92 kDa gelatinase (MMP9), 100 to 1000 nM; against collagenase (MMP1), 100 to 1000 nM.

In the case of `CO[C@H](C(=O)NO)[C@@H](CC(C)C)C(=O)N[C@@H](Cc1ccccc1)c1nc(C)no1` [Example 25, 2S-Methoxy-5-methyl-3R-[1S-(3-methyl-[1,2,4]oxadiazol-5-yl)-2-phenyl-ethylcarbamoyl]-hexanohydroxamic Acid], the IC50 on metalloelastase (MMP12) is < 100 nM; on 92 kDa gelatinase (MMP9), 100 to 1000 nM; against collagenase (MMP1) it was 100 to 1000 nM.

As for `Cc1nc([C@@H](NC(=O)[C@H](CC(C)C)[C@H](O)C(=O)NO)C(C)(C)C)no1` [Example 17, 2S-Hydroxy-3R-[1S-(5-methyl-[1,2,4]oxadiazol-3-yl)-2,2-dimethyl-propylcarbamoyl]-5-methyl Hexanohydroxamic Acid], the figures for the IC50 against metalloelastase (MMP12), on 92 kDa gelatinase (MMP9) and against collagenase (MMP1) were < 100 nM, 1000 to 10000 nM and 100 to 1000 nM, respectively.

With `CC(C)c1noc([C@@H](NC(=O)[C@H](CC2CCCC2)[C@H](O)C(=O)NO)C(C)(C)C)n1` [Example 32, 2R-Cyclopentylmethyl-3S,N4-dihydroxy-N1-[1S-(3-isopropyl-[1,2,4]oxadiazol-5-yl)-2,2-dimethyl-propyl]-succinamide], the IC50 against metalloelastase (MMP12), on 92 kDa gelatinase (MMP9) and against collagenase (MMP1) was < 100 nM in each case.

As for `CC(C)Cc1nc([C@@H](NC(=O)[C@H](CC(C)C)[C@H](O)C(=O)NO)C(C)(C)C)no1` [Example 11, 2S-Hydroxy-3R-[1S-(5-isobutyl-[1,2,4]oxadiazol-3-yl)-2,2-dimethyl-propylcarbamoyl]-5-methyl Hexanohydroxamic Acid], the IC50 against metalloelastase (MMP12) was < 100 nM; at 92 kDa gelatinase (MMP9), 1000 to 10000 nM; against collagenase (MMP1), 1000 to 10000 nM.

As to `CCc1nc([C@@H](NC(=O)[C@H](CC(C)C)[C@H](O)C(=O)NO)C(C)(C)C)no1` [Example 8, 2S-Hydroxy-3R-[1S-(5-ethyl-[1,2,4]oxadiazol-3-yl)-2,2-dimethyl-propylcarbamoyl]-5-methyl Hexanohydroxamic Acid], the IC50 was < 100 nM at metalloelastase (MMP12), 100 to 1000 nM on 92 kDa gelatinase (MMP9) and 100 to 1000 nM against collagenase (MMP1).

As to `CCOc1ccc(CCC[C@@H](C(=O)N[C@H](c2noc(-c3ccco3)n2)C(C)(C)C)[C@H](O)C(=O)NO)cc1` [Example 35, 2R-[3-(4-Ethoxy-phenyl)-propyl]-N1-[1S-(5-furan-2-yl-[1,2,4]oxadiazol-3-yl)-2,2-dimethyl-propyl]-3S,N4-dihydroxy-succinamide], the IC50 is < 100 nM against metalloelastase (MMP12), < 100 nM on 92 kDa gelatinase (MMP9) and > 10000 nM on collagenase (MMP1).

As to `CC(C)C[C@@H](C(=O)N[C@H](c1noc(C(C)C)n1)C(C)(C)C)[C@H](O)C(=O)NO` [Example 4, 2S-Hydroxy-3R-[1S-(5-isopropyl-[1,2,4]oxadiazol-3-yl)-2,2-dimethyl-propylcarbamoyl]-5-methyl Hexanohydroxamic Acid], the IC50 against metalloelastase (MMP12) was < 100 nM; on 92 kDa gelatinase (MMP9), 100 to 1000 nM; against collagenase (MMP1), 100 to 1000 nM.

Regarding `CCCCCCCCCCCCCC[C@H](CC(=O)O)C(=O)N[C@H](c1nc(-c2ccccc2)no1)C(C)(C)C` [Example 26, 3R-[2,2-Dimethyl-1S-(3-phenyl-[1,2,4]oxadiazol-5-yl)-propylcarbamoyl]-heptadecanoic Acid], the IC50 at metalloelastase (MMP12) and at 92 kDa gelatinase (MMP9) was > 10000 nM in each case.

On to `C=CC[C@H](C(=O)NO)[C@@H](CC(C)C)C(=O)N[C@@H](Cc1ccccc1)c1nc(C)no1` [Example 22, 2S-Allyl-5-methyl-3R-[2-phenyl-1S-(3-methyl-[1,2,4]oxadiazol-5-yl)-ethylcarbamoyl]-hexanohydroxamic Acid], for which the IC50 against collagenase (MMP1) was < 100 nM.

As for `CCCCCCCCCCCCCCCC[C@H](CC(=O)O)C(=O)N[C@H](c1nc(-c2ccccc2)no1)C(C)(C)C` [Example 27, 3R-[2,2-Dimethyl-1S-(3-phenyl-[1,2,4]oxadiazol-5-yl)-propylcarbamoyl]-nonadecanoic Acid], the IC50 against metalloelastase (MMP12) and on 92 kDa gelatinase (MMP9) was > 10000 nM throughout.

For the compound `CC(C)(C)[C@H](NC(=O)[C@H](CCCc1ccc(Cl)cc1)CC(=O)O)c1noc(-c2ccccc2)n1` [Example 28, 6-(4-Chloro-phenyl)-3R-[2,2-dimethyl-1S-(5-phenyl-[1,2,4]oxadiazol-3-yl)-propylcarbamoyl]-hexanoic Acid], the half-maximal inhibitory concentration (IC50) at metalloelastase (MMP12) was > 10000 nM.
